This experiment deals with PIK3CA (human) (UniProt P42336). Description: Assessment of PIK3CA Kinase Activity.
Sequence of PIK3CA (human) (P42336 whole entry, looked up): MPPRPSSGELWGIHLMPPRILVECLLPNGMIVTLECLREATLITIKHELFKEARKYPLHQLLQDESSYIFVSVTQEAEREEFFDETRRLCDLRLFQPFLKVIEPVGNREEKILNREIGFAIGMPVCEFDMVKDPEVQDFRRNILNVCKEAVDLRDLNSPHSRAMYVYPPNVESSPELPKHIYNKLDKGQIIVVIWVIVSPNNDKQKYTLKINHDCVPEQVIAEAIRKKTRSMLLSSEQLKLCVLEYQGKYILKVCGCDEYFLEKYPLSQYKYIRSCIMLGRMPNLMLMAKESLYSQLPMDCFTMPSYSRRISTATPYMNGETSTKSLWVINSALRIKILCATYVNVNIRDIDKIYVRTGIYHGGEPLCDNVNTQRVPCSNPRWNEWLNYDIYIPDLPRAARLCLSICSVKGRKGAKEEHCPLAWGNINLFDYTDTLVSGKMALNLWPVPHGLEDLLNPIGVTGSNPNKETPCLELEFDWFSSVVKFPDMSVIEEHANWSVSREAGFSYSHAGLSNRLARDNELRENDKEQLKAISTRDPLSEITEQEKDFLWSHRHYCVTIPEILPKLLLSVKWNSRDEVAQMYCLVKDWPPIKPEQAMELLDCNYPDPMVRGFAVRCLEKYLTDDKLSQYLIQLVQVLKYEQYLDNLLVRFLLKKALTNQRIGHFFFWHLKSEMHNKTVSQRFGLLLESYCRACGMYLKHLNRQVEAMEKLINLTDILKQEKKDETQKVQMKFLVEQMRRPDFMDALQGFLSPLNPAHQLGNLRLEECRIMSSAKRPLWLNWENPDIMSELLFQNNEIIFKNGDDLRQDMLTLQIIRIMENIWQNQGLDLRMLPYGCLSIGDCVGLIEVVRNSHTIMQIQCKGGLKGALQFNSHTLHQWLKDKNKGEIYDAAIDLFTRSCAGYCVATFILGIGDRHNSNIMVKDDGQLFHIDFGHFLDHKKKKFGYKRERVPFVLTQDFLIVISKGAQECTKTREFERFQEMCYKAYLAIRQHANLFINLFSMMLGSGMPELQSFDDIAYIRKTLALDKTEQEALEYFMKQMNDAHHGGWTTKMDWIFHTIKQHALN

For orientation: IC50 means the concentration at which inhibition is half-maximal. With `CN(C)C1CCN(Cc2cc3nc(-n4ccc5cc(O)ccc54)nc(N4CCOCC4)c3s2)CC1`, the IC50 was determined as 814 nM. This counts as sub-micromolar. `CC(C)(OCCN1CCCC1)c1cc2nc(-c3c[nH]c4ccccc34)nc(N3CCOCC3)c2s1` displayed an IC50 of 529 nM. To `c1ccc2c(-c3nc(N4CCOCC4)c4nc(CN5CC(N6CCOCC6)C5)sc4n3)c[nH]c2c1` belongs 396 nM. To `Cn1c(CN2CCC(N3CCOCC3)CC2)nc2c(N3CCOCC3)nc(-c3c[nH]c4ccccc34)nc21` belongs 5010 nM; to `O=C1COC2(CCN(Cc3cc4nc(-c5c[nH]c6ccccc56)nc(N5CCOCC5)c4s3)CC2)CN1`, 1380 nM. In the case of `Cn1c(CN2CCC(C(C)(C)O)CC2)nc2c(N3CCOCC3)nc(-n3c(C#N)cc4ccccc43)nc21`, the concentration for half-maximal inhibition (IC50) is 5300 nM. In the case of `CN(C)C1CCN(Cc2cc3nc(-c4c[nH]c5ccccc45)nc(N4CCOCC4)c3s2)CC1`, the 50% inhibitory concentration (IC50) turned out to be 495 nM. To `CC(C)(C(N)=O)N1CCN(Cc2cc3nc(-c4c(C#N)[nH]c5ccccc45)nc(N4CCOCC4)c3s2)CC1` belongs 809 nM; to `CN(C)C1CCN(Cc2cc3nc(N4CCc5ccccc54)nc(N4CCOCC4)c3s2)CC1`, 707 nM.

On to `CN(C)C1CCN(Cc2cc3nc(-n4ccc5ccccc54)nc(N4CCOCC4)c3s2)CC1`, for which the IC50 is 562 nM. On to `Cc1cc2cc(F)ccc2n1-c1nc(N2CCOCC2)c2sc(CN3CCC(N(C)C)CC3)cc2n1`, for which the IC50 came out at 1600 nM. Compared with the last compound, the IC50 is about 2.8-fold higher. To `COCc1cc2ccccc2n1-c1nc(N2CCOCC2)c2nc(CN3CCC(C(C)(C)O)CC3)n(C)c2n1` belongs 5390 nM; to `CN(C)[C@@H]1CCN(Cc2nc3c(N4CCOCC4)nc(-c4c[nH]c5ccccc45)nc3n2C)C[C@@H]1F`, 720 nM. For `CN(C)C1CCN(Cc2cc3nc(-c4c[nH]c5ccc(F)cc45)nc(N4CCOCC4)c3s2)CC1` the value was 1330 nM.

Values taken from the Kinase Knowledgebase extract (Sharma et al. 2016).
